The target in this assay is T1, Syk (Homo sapiens, UniProt P43405).
T1 construct: purchased Carna Biosciences
The assay is described as follows: Syk HTRF assay. The assay is classed as biochemical. In short, it runs like this:
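Read-out is the 665 nm/615 nm time-resolved fluorescence ratio after EDTA stop and Eu-anti-phosphotyrosine plus streptavidin-DyLight 647 detection. Reaction ran 1 h at room temperature with start mix of 87.5 μM ATP and 80 nM substrate peptide in pH 7.6 HEPES/MgCl2 buffer.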

The mark [1] stands for this setting: IC50 activity level, read-out: Activity Level.
[2] abbreviates: read-out: Activity Level (Syk HTRF assay IC50).
Where [3] appears, read: activity levels A-D, read-out: Activity Level (IC50 in the Syk HTRF assay).

Like-named read-outs stand apart in the source and are kept apart here.

For the molecule `CC(=O)Nc1cccc2nc(Nc3ccccc3)nn12` [Example 527, N-(2-(phenylamino)-[1,2,4]triazolo[1,5-a]pyridin-5-yl)acetamide], the IC50 under setting [1] is 500 to 1000 nM.

`CC1(C)C(=O)Nc2cc(Nc3nc4cccc(C(O)C5CCOCC5)n4n3)ccc21` (stereo not drawn) [Example 173, 6-(5-(hydroxy(tetrahydro-2H-pyran-4-yl)methyl)-[1,2,4]triazolo[1,5-a]pyridin-2-ylamino)-3,3-dimethylindolin-2-one]: the IC50 under setting [2] lay within 250 to 500 nM.

With `CNC(=O)c1ccc(Nc2nc3cccc(-c4ccc(-c5c[nH]cn5)cc4)n3n2)cc1` [compound 9, 4-(5-(4-(1H-imidazol-4-yl)phenyl)-[1,2,4]triazolo[1,5-a]pyridin-2-ylamino)-N-methylbenzamide], under setting [2], the IC50 was in the range of 0.005 to 250 nM.

Consider `CNC(=O)c1ccc(Nc2nc3cccc(N[C@H]4CC[C@@H](O)CC4)n3n2)cc1` [Example 386, cis-4-(5-(4-hydroxycyclohexylamino)-[1,2,4]triazolo[1,5-a]pyridin-2-ylamino)-N-methylbenzamide], for which the IC50 under setting [3] is 500 to 1000 nM.

Regarding `Oc1cccc(-c2cccc3nc(Nc4ccc5cn[nH]c5c4)nn23)c1` [compound 27, 3-(2-(1H-indazol-6-ylamino)-[1,2,4]triazolo[1,5-a]pyridin-5-yl)phenol], under setting [2], the IC50 is 0.005 to 250 nM.

On to `CNC(=O)c1ccc(Nc2nc3cccc(-c4ccc5[nH]ncc5c4)n3n2)cc1` [Example 426, 4-(5-(1H-indazol-5-yl)-[1,2,4]triazolo[1,5-a]pyridin-2-ylamino)-N-methylbenzamide], for which, under setting [1], the IC50 lay in the range of 0.005 to 250 nM.

As to `O=C1CN(Cc2cccc3nc(Nc4ccc(C(F)(F)F)cc4)nn23)CCN1` [Example 388, 4-((2-(4-(trifluoromethyl)phenylamino)-[1,2,4]-triazolo[1,5-a]pyridin-5-yl)methyl)piperazin-2-one], the IC50 under setting [3] lay in the range of 0.005 to 250 nM.

`CN1C(=O)Cc2ccc(Nc3nc4cccc(NC5CCOCC5)n4n3)cc21` [compound 119, 1-methyl-6-(5-(tetrahydro-2H-pyran-4-ylamino)-[1,2,4]triazolo[1,5-a]pyridin-2-ylamino)indolin-2-one]: the IC50 under setting [2] was in the range of 1000 to 10000 nM.

As for `CN1C(=O)C(C)(C)c2ccc(Nc3nc4cccc(CN5CCNC(=O)C5)n4n3)cc21` [Example 136, 1,3,3-trimethyl-6-(5-((3-oxopiperazin-1-yl)methyl)-[1,2,4]triazolo[1,5-a]pyridin-2-ylamino)inolin-2-one], under setting [2], the IC50 lay in the range of 0.005 to 250 nM.

`NCCn1cnc2ccc(-c3cccc4nc(Nc5ccccc5)nn34)cc21` [Example 515, 5-(1-(2-aminoethyl)-1H-benzo[d]imidazol-6-yl)-N-phenyl-[1,2,4]triazolo[1,5-a]pyridin-2-amine]: under setting [1], the IC50 lay in the range of 1000 to 10000 nM.

With `CN(C)c1ccc(Nc2nc3cccc(N[C@H]4CC[C@@H](O)CC4)n3n2)cn1` [Example 392, cis-4-(2-(6-(dimethylamino)pyridin-3-ylamino)-[1,2,4]triazolo[1,5-a]pyridin-5-ylamino)cyclohexanol], the IC50 under setting [3] lay within 250 to 500 nM.

`Cc1cc(Nc2nc3cccc(NC4CCOCC4)n3n2)cc2[nH]nc(C)c12` [compound 108]: the IC50 under setting [2] was in the range of 0.005 to 250 nM.

On to `CN(c1cccc2nc(Nc3ccc4c(c3)NC(=O)C4(C)C)nn12)C1CCOCC1` [Example 158, 3,3-dimethyl-6-(5-(methyl(tetrahydro-2H-pyran-4-yl)amino)-[1,2,4]triazolo[1,5-a]pyridin-2-ylamino)indolin-2-one], for which the IC50 under setting [2] was in the range of 0.005 to 250 nM.

On to `COCc1nc2ccc(Nc3nc4cccc(CC5CCOCC5)n4n3)cc2[nH]1` [compound 132, N-(2-(methoxymethyl)-1H-benzo[d]imidazol-6-yl)-5-((tetrahydro-2H-pyran-4-yl)methyl)-[1,2,4]triazolo[1,5-a]pyridin-2-amine], for which, under setting [2], the IC50 fell in the range of 0.005 to 250 nM.

In the case of `Cc1cc(Nc2nc3cccc(N[C@H]4CC[C@@H](O)CC4)n3n2)ccc1F` [Example 320, cis-4-(2-(4-fluoro-3-methylphenylamino)-[1,2,4]triazolo[1,5-a]pyridin-5-ylamino)cyclohexanol], the IC50 under setting [3] was in the range of 0.005 to 250 nM.

Regarding `CNC(=O)c1ccc(Nc2nc3cccc(-c4ccccc4Cl)n3n2)cc1` [compound 22, 4-(5-(2-chlorophenyl)-[1,2,4]triazolo[1,5-a]pyridin-2-ylamino)-N-methylbenzamide], the IC50 under setting [2] was in the range of 1000 to 10000 nM.

For `CNC(=O)c1ccc(Nc2nc3cccc(Cc4cccc(O)c4)n3n2)cc1` [Example 292, 4-(5-(3-hydroxybenzyl)-[1,2,4]triazolo[1,5-a]pyridin-2-ylamino)-N-methylbenzamide], under setting [3], the IC50 was 0.005 to 250 nM.

In the case of `OC(c1cccc2nc(Nc3ccccc3)nn12)C1CCNCC1` (stereo not drawn) [Example 502, (2-(phenylamino)-[1,2,4]triazolo[1,5-a]pyridin-5-yl)(piperidin-4-yl)methanol], under setting [1], the IC50 is 250 to 500 nM.

For `NC(=O)c1ccc(Nc2nc3cccc(-c4ccccc4)n3n2)cc1F` [compound 73, 2-fluoro-4-(5-phenyl-[1,2,4]triazolo[1,5-a]pyridin-2-ylamino)benzamide], the IC50 under setting [2] is 1000 to 10000 nM.

As for `CN(C)c1cc(-c2cccc3nc(Nc4ccccc4)nn23)ccn1` [Example 446, 5-(2-(dimethylamino)pyridin-4-yl)-N-phenyl-[1,2,4]triazolo[1,5-a]pyridin-2-amine], the IC50 under setting [1] is 250 to 500 nM.

Consider `CNC(=O)c1ccc(Nc2nc3cccc(N4CCCCC4)n3n2)cc1` [Example 247, N-methyl-4-(5-(piperidin-1-yl)-[1,2,4]triazolo[1,5-a]pyridin-2-ylamino)benzamide], for which the IC50 under setting [3] was in the range of 500 to 1000 nM.

Consider `CNC(=O)c1ccc(Nc2nc3cccc(CC4CCC(O)C4)n3n2)cc1` (single isomer, unassigned; diastereomer 1) [Example 232, 4-(5-((3-hydroxycyclopentyl)methyl)-[1,2,4]triazolo[1,5-a]pyridin-2-ylamino)-N-methylbenzamide (diastereomer 1)], for which, under setting [3], the IC50 was in the range of 1000 to 10000 nM.

For `Cc1n[nH]c2cc(Nc3nc4cccc(CN5CC(C)(O)C5)n4n3)ccc12` [Example 169, 3-methyl-1-((2-(3-methyl-1H-indazol-6-ylamino)-[1,2,4]triazolo[1,5-a]pyridin-5-yl)methyl)azetidin-3-ol], the IC50 under setting [2] lay within 250 to 500 nM.

With `Nc1n[nH]c2cc(Nc3nc4cccc(NC5CCCNC5)n4n3)ccc12` (stereo in doubt) [Example 450, (R)-N^2-(3-amino-1H-indazol-6-yl)-N^5-(piperidin-3-yl)-[1,2,4]triazolo[1,5-a]pyridin-2,5-diamine], the IC50 under setting [1] lay in the range of 0.005 to 250 nM.

Regarding `CC(C)(C)OC(=O)N1C(=O)C(C)(C)c2ccc(Nc3nc4cccc(N[C@H]5CC[C@@H](O)CC5)n4n3)cc21` [Example 545, cis-tert-butyl 6-(5-(4-hydroxycyclohexylamino)-[1,2,4]triazolo[1,5-a]pyridin-2-ylamino)-3,3-dimethyl-2-oxoindoline-1-carboxylate], the IC50 under setting [1] lay within 0.005 to 250 nM.

With `CNC(=O)c1ccc(Nc2nc3cccc(-c4cccc(C(=O)O)c4)n3n2)cc1` [compound 30, 3-(2-(4-(methylcarbamoyl)phenylamino)-[1,2,4]triazolo[1,5-a]pyridin-5-yl)benzoic acid], the IC50 under setting [2] is 1000 to 10000 nM.

As for `OC[C@]1(O)CC[C@@H](Nc2cccc3nc(Nc4ccc(C(F)(F)F)cc4)nn23)CC1` [Example 227, cis-1-(hydroxymethyl)-4-(2-(4-(trifluoromethyl)phenylamino)-[1,2,4]triazolo[1,5-a]pyridin-5-ylamino)cyclohexanol], the IC50 under setting [3] was 0.005 to 250 nM.

Source of the values: patent US8299056B2 (Signal Pharmaceuticals, LLC, priority 2008, dated 2012).
